Experimental data from ChEMBL document CHEMBL2385047, “Synthesis and antifungal evaluation of pentyloxyl-diphenylisoxazoloyl pneumocandins and echinocandins” (Bioorg Med Chem Lett, 2013).
Converted amounts (≈) assume the structure as drawn. Numbered stars: 1 amine (or outer) side, 2 acyl side, 3 side chain; on linkers, the order of the positions; unused ones are H or OH. Bridge positions count the residues as written; N and C are the ends. Square brackets hold non-standard residues; d marks the D form. Peptide text beside a SMILES is read from it. * marks the point of attachment. Orn(4R-OH,5R-OH) = O=C([C@H](C[C@@H](O)[C@@H](O)N[*:3])N[*:1])[*:2]; hTyr(3S-OH,4S-OH) = N[C@H](C(=O)O)[C@H](O)[C@@H](O)c1ccc(O)cc1; X1 = CCCCCOc1ccc(-c2cc(-c3ccc(C(=O)*)cc3)no2)cc1; Gln(3R-OH) = NC(=O)C[C@@H](O)[C@H](N)C(=O)O; Pro(3S-OH) = O=C(O)[C@H]1NCC[C@@H]1O; Hyp = O=C(O)[C@@H]1C[C@@H](O)CN1

Key:
[1] = test system: Clavispora lusitaniae; assay: Antifungal activity against wild type Candida lusitaniae MY1396 assessed as growth inhibition after 24 hrs by NCCLS broth microdilution method; format: functional; details: MY1396, 24 h; for MIC: read-out: MIC100
[2] = Inhibition of caspofungin-resistant Candida albicans CLY-16996 1,3-beta-D-glucan synthase component FKS1/FKS1 S645F mutant using UDP[6,3H]-glucose as substrate after 60 mins by liquid scintillation counting analysis
[3] = test system: Meyerozyma guilliermondii; assay: Antifungal activity against wild type Candida guilliermondii CLY308 assessed as growth inhibition after 24 hrs by NCCLS broth microdilution method; format: functional; details: CLY308, 24 h; for MIC: read-out: MIC100
[4] = test system: Escherichia coli; assay: Antibacterial activity against Escherichia coli ATCC 25922 assessed as growth inhibition after 24 hrs by NCCLS broth microdilution method; format: functional; details: ATCC 25922, 24 h, read-out: MIC100
[5] = test system: Candida albicans; assay: Antifungal activity against Candida albicans MY1055 infected in DBA/2 mouse assessed as reduction of log CFU in kidney administered 30 mins as ip tid post infection measured after 24 hrs; format: functional
[6] = test system: Nakaseomyces glabratus; assay: Antifungal activity against wild type Candida glabrata MY1381 assessed as growth inhibition after 24 hrs by NCCLS broth microdilution method; format: functional; details: MY1381, 24 h; for MIC: read-out: MIC100
[7] = molecular target: T1, Beta-1,3-glucan synthase (Candida albicans, UniProt O13383); assay: Inhibition of wild type Candida albicans MY1055 1,3-beta-D-glucan synthase using UDP[6,3H]-glucose as substrate after 60 mins by liquid scintillation counting analysis
T1 sequence (O13383 whole entry): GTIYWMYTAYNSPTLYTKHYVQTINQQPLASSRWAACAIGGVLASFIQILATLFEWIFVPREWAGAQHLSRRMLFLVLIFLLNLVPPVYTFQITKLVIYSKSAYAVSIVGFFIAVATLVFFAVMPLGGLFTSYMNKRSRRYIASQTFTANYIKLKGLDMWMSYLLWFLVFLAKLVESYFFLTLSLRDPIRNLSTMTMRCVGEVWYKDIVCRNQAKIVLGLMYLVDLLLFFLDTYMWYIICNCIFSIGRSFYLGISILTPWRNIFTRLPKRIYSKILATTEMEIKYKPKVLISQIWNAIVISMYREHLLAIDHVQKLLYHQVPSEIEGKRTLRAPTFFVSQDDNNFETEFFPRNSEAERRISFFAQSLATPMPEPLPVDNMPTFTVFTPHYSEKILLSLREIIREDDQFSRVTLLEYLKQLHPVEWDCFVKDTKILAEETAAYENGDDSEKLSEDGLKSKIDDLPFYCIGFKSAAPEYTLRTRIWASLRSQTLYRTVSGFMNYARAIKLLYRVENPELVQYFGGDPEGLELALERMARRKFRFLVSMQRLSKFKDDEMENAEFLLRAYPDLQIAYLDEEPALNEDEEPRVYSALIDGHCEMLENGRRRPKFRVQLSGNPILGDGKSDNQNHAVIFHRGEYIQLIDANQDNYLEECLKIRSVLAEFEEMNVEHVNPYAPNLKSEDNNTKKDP

[8] = test system: Candida parapsilosis; assay: Antifungal activity against wild type Candida parapsilosis ATCC 22019 assessed as growth inhibition after 24 hrs by NCCLS broth microdilution method; format: functional; details: Lodderomyces parapsilosis, ATCC 22019, 24 h; for MIC: read-out: MIC100
[9] = test system: Cryptococcus neoformans; assay: Antifungal activity against capsular wild type Cryptococcus neoformans MY2061 assessed as growth inhibition after 24 hrs by NCCLS broth microdilution method; format: functional; details: MY2061, 24 h, read-out: MIC100
[10] = test system: Pichia kudriavzevii; assay: Antifungal activity against wild type Candida krusei CLY549 assessed as growth inhibition after 24 hrs by NCCLS broth microdilution method; format: functional; details: CLY549, 24 h; for MIC: read-out: MIC100
[11] = test system: Candida albicans; assay: Antifungal activity against wild type Candida albicans MY1055 assessed as growth inhibition after 24 hrs by NCCLS broth microdilution method in presence of human serum; format: functional; details: MY1055, 24 h; for MIC: read-out: MIC100
[12] = test system: Staphylococcus aureus; assay: Antibacterial activity against methicillin-sensitive Staphylococcus aureus MB2865 assessed as growth inhibition after 24 hrs by NCCLS broth microdilution method; format: functional; details: MB2865, 24 h, read-out: MIC100
[13] = test system: Candida albicans; assay: Antifungal activity against wild type Candida albicans MY1055 assessed as growth inhibition after 24 hrs by NCCLS broth microdilution method; format: functional; details: MY1055, 24 h; for MIC: read-out: MIC100
[14] = test system: Candida albicans; assay: Antifungal activity against caspofungin-resistant Candida albicans CLY-16996 harboring 1,3-beta-D-glucan synthase component FKS1/FKS1 S645F mutant assessed as growth inhibition after 24 hrs by NCCLS broth microdilution method; format: functional; details: CLY-16996, 24 h
[15] = test system: Candida albicans; assay: Antifungal activity against Candida albicans CAI4-R1 assessed as growth inhibition after 24 hrs by NCCLS broth microdilution method; format: functional; details: CAI4-R1, 24 h; for MIC: read-out: MIC100
[16] = test system: Candida albicans; assay: Antifungal activity against Candida albicans NR3 assessed as growth inhibition after 24 hrs by NCCLS broth microdilution method; format: functional; details: NR3, 24 h; for MIC: read-out: MIC100
[17] = test system: Aspergillus fumigatus; assay: Antifungal activity against Aspergillus fumigatus MF5668 caspofungin spontaneous resistance mutant assessed as growth inhibition after 24 hrs by NCCLS broth microdilution method; format: functional; details: MF5668, 24 h; for minimal effective concentration: read-out: MEC
[18] = Inhibition of caspofungin-resistant Candida albicans CLY-16997 1,3-beta-D-glucan synthase component FKS1/FKS1 S645P mutant using UDP[6,3H]-glucose as substrate after 60 mins by liquid scintillation counting analysis
[19] = test system: Candida albicans; assay: Antifungal activity against wild type Candida albicans CAI4 assessed as growth inhibition after 24 hrs by NCCLS broth microdilution method; format: functional; details: CAI4, 24 h; for MIC: read-out: MIC100

| Structure (SMILES) | MIC80 [1] [µg/mL] | MIC [1] [µg/mL] | IC50 [2] [nM] | MIC80 [3] [µg/mL] | MIC [3] [µg/mL] | MIC [4] [µg/mL] | ED90 [5] [mg/kg/day] | ED99 [5] [mg/kg/day] | MIC80 [6] [µg/mL] | MIC [6] [µg/mL] | IC50 [7] [nM] | MIC80 [8] [µg/mL] | MIC [8] [µg/mL] | MIC [9] [µg/mL] | MIC80 [10] [µg/mL] | MIC [10] [µg/mL] | MIC80 [11] [µg/mL] | MIC [11] [µg/mL] | MIC [12] [µg/mL] | MIC80 [13] [µg/mL] | further results |
| --- | --- | --- | --- | --- | --- | --- | --- | --- | --- | --- | --- | --- | --- | --- | --- | --- | --- | --- | --- | --- | --- |
| CCCCCOc1ccc(-c2cc(-c3ccc(C(=O)N[C@H]4C[C@@H](O)[C@@H](O)NC(=O)[C@@H]5[C@@H](O)CCN5C(=O)[C@H]([C@H](O)CC(N)=O)NC(=O)[C@H]([C@H](O)[C@@H](O)c5ccc(O)cc5)NC(=O)[C@@H]5C[C@@H](O)CN5C(=O)[C@H]([C@@H](C)O)NC4=O)cc3)no2)cc1 (X1-[Orn(4R-OH,5R-OH)]T[Hyp][hTyr(3S-OH,4S-OH)][Gln(3R-OH)][Pro(3S-OH)]; lactam 1-C) | < 0.03 | 0.125 (≈ 0.108 µM) | 2.1 | 1 (≈ 0.862 µM) | 2 (≈ 1.72 µM) | > 32 | 0.24 | 1.31 | 0.25 (≈ 0.215 µM) | 0.5 (≈ 0.431 µM) | 2.8 | 2 (≈ 1.72 µM) | 32 (≈ 27.6 µM) | > 32 | 0.25 (≈ 0.215 µM) | 2 (≈ 1.72 µM) | 0.25 | 1 | > 32 | < 0.03 | MIC [13]: 0.125 µg/mL (≈ 0.108 µM); MIC [14]: 2 µg/mL (≈ 1.72 µM); MIC80 [15]: 1 µg/mL (≈ 0.862 µM); MIC [15]: 4 µg/mL (≈ 3.45 µM); MIC80 [16]: 4 µg/mL (≈ 3.45 µM); MIC [16]: 8 µg/mL (≈ 6.9 µM); MIC80 [17]: < 0.03 µg/mL; minimal effective concentration [17]: > 32 µg/mL; IC50 [18]: 2.4 nM; MIC80 [19]: < 0.03 µg/mL; MIC [19]: 0.06 µg/mL (≈ 0.0517 µM) |
| CC[C@H](C)C[C@H](C)CCCCCCCCC(=O)N[C@H]1C[C@@H](O)[C@@H](NCCN)NC(=O)[C@@H]2[C@@H](O)CCN2C(=O)[C@H]([C@H](O)CCN)NC(=O)[C@H]([C@H](O)[C@@H](O)c2ccc(O)cc2)NC(=O)[C@@H]2C[C@@H](O)CN2C(=O)[C@H]([C@@H](C)O)NC1=O [CASPOFUNGIN] | < 0.03 | 0.5 (≈ 0.457 µM) | > 92000 | 0.25 (≈ 0.229 µM) | 1 (≈ 0.915 µM) | > 32 | 0.02 | 0.15 | 0.06 (≈ 0.0549 µM) | 0.25 (≈ 0.229 µM) | 0.24 | 0.25 (≈ 0.229 µM) | > 32 | 16 (≈ 14.6 µM) | 0.25 (≈ 0.229 µM) | 2 (≈ 1.83 µM) | 0.125 | 8 | 32 (≈ 29.3 µM) | < 0.03 | MIC [13]: 0.06 µg/mL (≈ 0.0549 µM); MIC [14]: 64 µg/mL (≈ 58.5 µM); MIC80 [15]: 1 µg/mL (≈ 0.915 µM); MIC [15]: > 32 µg/mL; MIC80 [16]: 2 µg/mL (≈ 1.83 µM); MIC [16]: > 32 µg/mL; MIC80 [17]: < 0.03 µg/mL; minimal effective concentration [17]: > 32 µg/mL; IC50 [18]: > 9200 nM; MIC80 [19]: < 0.03 µg/mL; MIC [19]: 0.125 µg/mL (≈ 0.114 µM) |
